For 19 compounds, IC50 and minimal effective concentration results are on record in patent US20250236616A1, “IMMUNOMODULATING AZALIDES” (Zoetis Services LLC, priority 2021, published 2025).

The test system of assay [1] is TNF-α. The assay is described as follows: Whole bovine blood assay, LPS-induced TNF-α. In kind it is cell-based. Conditions: fresh whole bovine blood, LPS stimulant. In outline: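 Fresh heparinized bovine whole blood was preincubated with compound 4 h at 37 °C, then stimulated with LPS (final 1 μg/mL) for 18 h at 37 °C. Plasma TNF-α was quantified by MSD U-Plex chemiluminescent immunoassay, normalized to total protein (BCA), and IC50 taken for LPS-induced TNF-α inhibition.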

Assay [2] deals with IL-1β. The experiment in a line: Whole bovine blood assay, LPS-induced IL-1β (inhibition / overstimulation). Conditions: drug concentration giving overstimulation (OS) of LPS-induced IL-1β. Format: cell-based. As for the experimental part: Whole Blood Assay-Fresh whole bovine blood samples were collected into heparinized vacutainer tubes. Assay plates were prepared with 25 μL of drug diluted in PBS at varying concentration in 96 round bottom wells, then 225 μL of blood was added and plates incubated at 37° C. for 4 hours. Cells were stimulated with LPS (or PBS for controls) by adding 25 μL to the plates at a final concentration of 1 μg/mL and incubated at 37° C. for 18 hours. To collect plasma, plates were centrifuged at 2,000×g for 10 minutes and 100 μL of supernatant was transferred to a 96 well polypropylene plate that was sealed and stored at −80° C. Samples were assayed for cytokines using the Meso Scale Discovery (MSD) platform (described below). This same MSD platform was used to assess cytokines in the plasma collected directly from drug treated animals.
Cytokine Detection—An MSD U-Plex cytokine assay was developed following the MSD U-Plex protocol guide and included biotinylated capture antibodies against: bovine Interleukin (IL)-1β (Biorad), bovine IL-6 (R&D Systems) and bovine tumor necrosis factor (TNF)-α (R&D Systems). The anti-IL-1β antibody was biotinylated using EZ-Link Sulfo-NHS-Biotin (Thermo Scientific) at a challenge ratio of 1:20 according to manufacturer instructions. Assay calibrators (Kingfisher) were diluted to a concentration of […] in control lithium heparin plasma, followed by 4-fold serial dilutions into plasma. The detection antibodies were sulfo-tagged following the MSD quick guide conjugation protocol using a challenge ratio of 1:20. Antibodies were used at the following concentrations: anti-IL-1β at 1 μg/mL, anti-IL-6 at 1 μg/mL and anti-TNF-α at 0.5 μg/mL. Cytokines were quantified according to manufacturer's instructions using a chemiluminescent readout. In brief, 0.5 mL of all biotinylated antibodies were diluted to 10 μg/mL with Diluent 100 and paired to their respective linkers by adding 750 μL of supplied Linker solution and incubated for 30 minutes followed by addition of Stop solution for another 30 minutes. The linked antibodies were then diluted 10-fold into Stop solution. Plates were coated by adding 50 μL of antibody solutions per well and incubated covered and shaking for 1 hour at room temperature. Plates were washed three times with PBS/Tween20 prior to samples or standards being added at 30 μL per well and incubated as above. Plates were washed three times before detection antibodies were added along with 2% goat and rabbit serum to block and incubated same as above. Plates were washed a further three times before addition of 150 μL 2X Read buffer and read immediately on the SI6000 instrument (MSD). For soluble protein levels, a BCA protein kit (Thermofisher) was used. The cytokine concentrations (pg/mL) were normalized to the total protein levels for each sample. [Bassel et. al., BMC Veterinary Research (2020) 16:168]
Therefore, a fresh whole bovine blood assay was developed with LPS as a stimulant (TLR-4 agonist) and with IL-1β and TNF-α as the read-out. Compounds of the invention were evaluated against a positive control for their ability to inhibit LPS-induced IL-1β and TNF-α as an overall evaluation of relative potency and modulation of target pathways.
For M9, the top dose of 500 μM was not high enough to determine an overstimulation of IL-1 B which was recorded as not applicable (n/a). The enhanced response indicates increased concentration of IL-1β cytokine at the drug concentration indicated. This is generally observed when compounds are out of range (high concentration) and stimulate a cellular toxicity signal. Further data supporting this hypothesis includes murine studies using a P. multocida infection in mice.
TNFα is a cell signaling protein, cytokine, that plays a key role in both acute and chronic inflammation. […]

In assay [1] (top drug concentration 250 μM), `CC[C@H]1OC(=O)[C@H](C)[C@@H](O)[C@H](C)[C@@H](O[C@@H]2O[C@H](C)C[C@H](N(C)S(=O)(=O)c3ccccc3)[C@H]2Oc2ccc(OC)cc2)[C@](C)(O)C[C@@H](C)CN(C)[C@H](C)[C@@H](O)[C@]1(C)O` [Example A-1] yielded a half-inhibitory concentration (IC50) of 22 µM. Besides, in assay [2] (top concentration 250 μM), the minimal effective concentration was determined as 16 µM. Regarding `CC[C@H]1OC(=O)[C@H](C)[C@@H](O)[C@H](C)[C@@H](O[C@@H]2O[C@H](C)C[C@H](N(C)S(=O)(=O)c3ccccc3)[C@H]2Oc2ccc(F)c(C(F)(F)F)c2)[C@](C)(O)C[C@@H](C)CN(C)[C@H](C)[C@@H](O)[C@]1(C)O` [Example A-2], half-maximal inhibition in assay [1] (top drug concentration 250 μM) (IC50) was put at 28 µM. In assay [2] (top concentration 250 μM), this compound had a minimal effective concentration of 40 µM. For the compound `CC[C@H]1OC(=O)[C@H](C)[C@@H](O)[C@H](C)[C@@H](O[C@H]2O[C@@H](C)C[C@@H](N(C)S(=O)(=O)Nc3ccccc3)[C@@H]2Oc2ccccc2)[C@](C)(O)C[C@@H](C)CN[C@H](C)[C@@H](O)[C@]1(C)O` [Example A-4], the IC50 in assay [1] (top drug concentration 250 μM) stood at 10 µM. The compound further had a minimal effective concentration in assay [2] (top concentration 250 μM) of 4 µM.

Regarding `CC[C@H]1OC(=O)[C@H](C)[C@@H](O)[C@H](C)[C@@H](O[C@@H]2O[C@H](C)C[C@H](N(C)S(=O)(=O)Nc3ccccc3)[C@H]2Oc2ccc(OC)cc2)[C@](C)(O)C[C@@H](C)CN[C@H](C)[C@@H](O)[C@]1(C)O` [Example A-36], the midpoint of inhibition in assay [1] (top drug concentration 250 μM), the IC50, lay at 10 µM. In addition, the minimal effective concentration in assay [2] (top concentration 250 μM) was 4 µM. Regarding `CCCNC[C@]1(O)[C@H](C)O[C@@H](O[C@H]2[C@H](C)[C@@H](O[C@@H]3O[C@H](C)C[C@H](N(C)S(=O)(=O)c4cn(C)c(C)n4)[C@H]3O)[C@](C)(O)C[C@@H](C)CN[C@H](C)[C@@H](O)[C@](C)(O)[C@@H](CC)OC(=O)[C@@H]2C)C[C@@]1(C)OC` [Example B-5], the IC50 in assay [1] (top drug concentration 250 μM) was greater than 250 µM. This compound gave a minimal effective concentration in assay [2] (top concentration 250 μM) greater than 250 µM. Take `CCCNC[C@]1(O)[C@H](C)O[C@@H](O[C@H]2[C@H](C)[C@@H](O[C@@H]3O[C@H](C)C[C@H](N(C)S(=O)(=O)c4ccc(F)nc4)[C@H]3O)[C@](C)(O)C[C@@H](C)CN[C@H](C)[C@@H](O)[C@](C)(O)[C@@H](CC)OC(=O)[C@@H]2C)C[C@@]1(C)OC` [Example B-6]: in assay [1] (top drug concentration 250 μM), 24 µM corresponded to half-maximal inhibition (IC50). This compound returned a minimal effective concentration in assay [2] (top concentration 250 μM) of 16 µM. `CCCNC[C@]1(O)[C@H](C)O[C@@H](O[C@H]2[C@H](C)[C@@H](O[C@@H]3O[C@H](C)C[C@H](N(C)S(=O)(=O)c4ccccc4)[C@H]3O)[C@](C)(O)C[C@@H](C)CN[C@H](C)[C@@H](O)[C@](C)(O)[C@@H](CC)OC(=O)[C@@H]2C)C[C@@]1(C)OC` [Example B-7] registered a 50% inhibitory concentration (IC50) in assay [1] (top drug concentration 250 μM) of 25 µM. This compound also gave a minimal effective concentration in assay [2] (top concentration 250 μM) of 40 µM. Regarding `CCCNC[C@]1(O)[C@H](C)O[C@@H](O[C@H]2[C@H](C)[C@@H](O[C@@H]3O[C@H](C)C[C@H](N(C)S(=O)(=O)c4cnc5ccsc5c4)[C@H]3O)[C@](C)(O)C[C@@H](C)CN[C@H](C)[C@@H](O)[C@](C)(O)[C@@H](CC)OC(=O)[C@@H]2C)C[C@@]1(C)OC` [Example B-9], in assay [1] (top drug concentration 250 μM), 55 µM corresponded to half-maximal inhibition (IC50). This compound returned a minimal effective concentration in assay [2] (top concentration 250 μM) of 40 µM. `CCCNC[C@]1(O)[C@H](C)O[C@@H](O[C@H]2[C@H](C)[C@@H](O[C@@H]3O[C@H](C)C[C@H](N(C)S(=O)(=O)CC4CC4)[C@H]3O)[C@](C)(O)C[C@@H](C)CN[C@H](C)[C@@H](O)[C@](C)(O)[C@@H](CC)OC(=O)[C@@H]2C)C[C@@]1(C)OC` [Example B-10] showed a concentration for half-maximal inhibition (IC50) in assay [1] (top drug concentration 250 μM) of 33 µM. The compound also gave a minimal effective concentration in assay [2] (top concentration 250 μM) of 15 µM. Take `CCCNC[C@]1(O)[C@H](C)O[C@@H](O[C@H]2[C@H](C)[C@@H](O[C@@H]3O[C@H](C)C[C@H](N(C)S(=O)(=O)c4ccc(C#N)cc4)[C@H]3O)[C@](C)(O)C[C@@H](C)CN[C@H](C)[C@@H](O)[C@](C)(O)[C@@H](CC)OC(=O)[C@@H]2C)C[C@@]1(C)OC` [Example B-13]: the IC50 in assay [1] (top drug concentration 250 μM) is greater than 250 µM. The same compound showed a minimal effective concentration in assay [2] (top concentration 250 μM) of 100 µM. Turning to `CCCNC[C@]1(O)[C@H](C)O[C@@H](O[C@H]2[C@H](C)[C@@H](O[C@@H]3O[C@H](C)C[C@H](N(C)S(=O)(=O)c4cn(C)cn4)[C@H]3O)[C@](C)(O)C[C@@H](C)CN[C@H](C)[C@@H](O)[C@](C)(O)[C@@H](CC)OC(=O)[C@@H]2C)C[C@@]1(C)OC` [Example B-16], the half-maximal inhibitory concentration (IC50) in assay [1] (top drug concentration 250 μM) is greater than 250 µM. The minimal effective concentration in assay [2] (top concentration 250 μM) is recorded as greater than 250 µM.

For `CCCNC[C@]1(O)[C@H](C)O[C@@H](O[C@H]2[C@H](C)[C@@H](O[C@@H]3O[C@H](C)C[C@H](N(C)S(=O)(=O)c4ccc(OC)cc4)[C@H]3O)[C@](C)(O)C[C@@H](C)CN[C@H](C)[C@@H](O)[C@](C)(O)[C@@H](CC)OC(=O)[C@@H]2C)C[C@@]1(C)OC` [Example B-18], in assay [1] (dose of 500 μM (footnote ^)), the IC50 is 15 µM. The compound further gave a minimal effective concentration in assay [2] (dose of 500 μM (footnote ^)) of 32 µM.

In assay [1] (top drug concentration 250 μM), `CCCNC[C@]1(O)[C@H](C)O[C@@H](O[C@H]2[C@H](C)[C@@H](O[C@@H]3O[C@H](C)C[C@H](N(C)S(=O)(=O)c4ccc(-n5cccn5)cc4)[C@H]3O)[C@](C)(O)C[C@@H](C)CN[C@H](C)[C@@H](O)[C@](C)(O)[C@@H](CC)OC(=O)[C@@H]2C)C[C@@]1(C)OC` [Example B-19] came in with an IC50 of 30 µM. The minimal effective concentration in assay [2] (top concentration 250 μM) was 16 µM.

`CC[C@H]1OC(=O)[C@H](C)[C@@H](O[C@H]2C[C@@](C)(OC)[C@](O)(CNCCOC)[C@H](C)O2)[C@H](C)[C@@H](O[C@@H]2O[C@H](C)C[C@H](N(C)S(=O)(=O)c3ccc(Cl)cc3)[C@H]2O)[C@](C)(O)C[C@@H](C)CN[C@H](C)[C@@H](O)[C@]1(C)O` [Example B-36] came in with an IC50 in assay [1] (top drug concentration 250 μM) of 29 µM. Also, the minimal effective concentration in assay [2] (top concentration 250 μM) was found to be 16 µM. On the same counts, the results for `CCCNC[C@]1(O)[C@H](C)O[C@@H](O[C@H]2[C@H](C)[C@@H](O[C@@H]3O[C@H](C)C[C@H](N(C)S(C)(=O)=O)[C@H]3O)[C@](C)(O)C[C@@H](C)CN[C@H](C)[C@@H](O)[C@](C)(O)[C@@H](CC)OC(=O)[C@@H]2C)C[C@@]1(C)OC` [Example B-59] are 150 µM and 57 µM. Compound `CC[C@H]1OC(=O)[C@H](C)[C@@H](O[C@H]2C[C@@](C)(OC)[C@](O)(CNCCCN(C)C)[C@H](C)O2)[C@H](C)[C@@H](O[C@@H]2O[C@H](C)C[C@H](N(C)S(=O)(=O)Nc3ccc(C(F)(F)F)cc3)[C@H]2O)[C@](C)(O)C[C@@H](C)CN[C@H](C)[C@@H](O)[C@]1(C)O` [Example B-74] had a half-maximal inhibitory concentration (IC50) in assay [1] (top drug concentration 250 μM) of 33 µM. This compound also yielded a minimal effective concentration in assay [2] (top concentration 250 μM) of 16 µM. For `CCCNC[C@]1(O)[C@H](C)O[C@@H](O[C@H]2[C@H](C)[C@@H](O[C@@H]3O[C@H](C)C[C@H](N(C)S(=O)(=O)c4nccn4C)[C@H]3Oc3ccc(OC)cc3)[C@](C)(O)C[C@@H](C)CN[C@H](C)[C@@H](O)[C@](C)(O)[C@@H](CC)OC(=O)[C@@H]2C)C[C@@]1(C)OC` [Example B-119], the minimal effective concentration in assay [2] (top concentration 250 μM) came to 6 µM. As for `CCCNC[C@]1(O)[C@H](C)O[C@@H](O[C@H]2[C@H](C)[C@@H](O[C@@H]3O[C@H](C)C[C@H](N(C)S(=O)(=O)c4ccccc4)[C@H]3Oc3ccc(Cl)cn3)[C@](C)(O)C[C@@H](C)CN[C@H](C)[C@@H](O)[C@](C)(O)[C@@H](CC)OC(=O)[C@@H]2C)C[C@@]1(C)OC` [Example B-135], in assay [2] (top concentration 250 μM), the minimal effective concentration stood at 6 µM. Still for that read-out and setting: for `CCCNC[C@]1(O)[C@H](C)O[C@@H](O[C@H]2[C@H](C)[C@@H](O[C@@H]3O[C@H](C)C[C@H](N(C)S(N)(=O)=O)[C@H]3O)[C@](C)(O)C[C@@H](C)CN[C@H](C)[C@@H](O)[C@](C)(O)[C@@H](CC)OC(=O)[C@@H]2C)C[C@@]1(C)OC` [Example B-140] the value was greater than 250 µM.
